According to US20250213573A1, “PHARMACEUTICAL COMPOSITION COMPRISING JAK INHIBITOR, PREPARATION METHOD THEREFOR AND USE THEREOF” (BEIJING MAXINOVEL PHARMACEUTICALS CO., LTD., priority 2022, published 2025):

Assay: Saturation solubility test of the compound of formula I in different solvents
Format: physicochemical
Details: thermodynamic from solid
Text: Example 1: Saturation Solubility Test of the Compound of Formula I in Different Solvents

solubility (aqueous buffer, saturation solubility in pH 2 phosphate buffer): 16 µg/mL
solubility (aqueous buffer, saturation solubility in pH 4 phosphate buffer): 1 µg/mL
solubility (aqueous buffer, saturation solubility in pH 6 phosphate buffer): 1 µg/mL
solubility (aqueous buffer, saturation solubility in pH 8 phosphate buffer): 1 µg/mL
solubility (oil or lipid, saturation solubility in Corn oil): 14 µg/mL
solubility (oil or lipid, saturation solubility in Medium chain triglycerides): 75 µg/mL
solubility (oil or lipid, saturation solubility in Oleic acid): 230 µg/mL
solubility (oil or lipid, saturation solubility in Olive oil): 14 µg/mL
solubility (oil or lipid, saturation solubility in Soybean oil): 18 µg/mL
solubility (organic solvent or mixture, saturation solubility in Anhydrous ethanol): 240 µg/mL
solubility (organic solvent or mixture, saturation solubility in Diethylene glycol monoethyl ether): 14000 µg/mL
solubility (organic solvent or mixture, saturation solubility in Dimethyl sulfoxide): 302000 µg/mL
solubility (organic solvent or mixture, saturation solubility in Ethyl acetate): 2340 µg/mL
solubility (organic solvent or mixture, saturation solubility in Glycerol): 70 µg/mL
solubility (organic solvent or mixture, saturation solubility in Polyethylene glycol 400): 26600 µg/mL
solubility (organic solvent or mixture, saturation solubility in Propylene glycol): 990 µg/mL
solubility (saturation solubility in Pure water): 1 µg/mL
Structure (SMILES): CCS(=O)(=O)N1CC(C(CC#N)n2cc(-c3nc(Nc4cnn(C)c4)nc4ccsc34)cn2)C1 (centres unmarked) [Compound of formula I]
